We go through 5 compounds from patent US20080107619A1, “Carbohydrate based cellulase inhibitors as feeding stimulants in termites” (University of Florida Research Foundation, Inc., priority 2006, published 2008).

For experiment [1], the system named is R. flavipes worker termites. The experiment in a line: Validative feeding bioassays with mono- and di-saccharides. In kind it is in vivo. As to conditions: no-choice tests; concentrations tested 0.004-3.0% wt/wt; FIG. 12A.
The test system of experiment [2] is Formosan Subterranean Termite β-glucosidases. As to conditions: after feeding; Zhu et al.; cited from earlier work.
The subject of another experiment is R. flavipes. As to conditions: choice tests; Waller et al.; cited from earlier work.
The next experiment concerns R. virginicus. The conditions noted are these: choice tests; Waller et al.; cited from earlier work.

“Also recorded” adds a separate entry of the source.

Turning to `OC[C@H]1O[C@H](O[C@H]2[C@H](O)[C@@H](O)C(O)O[C@@H]2CO)[C@H](O)[C@@H](O)[C@@H]1O` (mixture of isomers) [maltose], the feeding stimulation result in experiment [1] is on record as “generally a feeding deterrent; also recorded: no significant feeding stimulation”. For `COc1cc(C=CC(=O)O)cc(OC)c1O` (stereo in doubt) [sinapinic acid], the inhibition entry in experiment [2] is “completely ineffective”.

On to `O=C[C@H](O)[C@@H](O)[C@H](O[C@@H]1O[C@H](CO)[C@@H](O)[C@H](O)[C@H]1O)[C@H](O)CO` [cellobiose], for which, in experiment [1], the feeding stimulation entry is recorded as “no significant feeding stimulation”. As for `OC[C@H]1O[C@@](CO)(O[C@H]2O[C@H](CO)[C@@H](O)[C@H](O)[C@H]2O)[C@@H](O)[C@@H]1O` [sucrose], the “consumption of treated paper substrates versus untreated controls” value in the experiment on R. flavipes and in the experiment on R. virginicus was “consumed more paper substrates” throughout.

As for `O=C[C@H](O)[C@@H](O)[C@H](O)CO` [xylose], the “consumption of treated paper substrates versus untreated controls” value in the experiment with R. flavipes and in the experiment with R. virginicus was “consumed more paper substrates” throughout.
